Laboratory results from ChEMBL document CHEMBL1201861, “Genomics of Drug Sensitity in Cancer screening data, Wellcome Trust Sanger Institute”.

Assays:
Experiment in all cases: cells
Capan-2 = type: functional, cell-based, Homo sapiens; conditions: Homo sapiens, Capan-2;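 also: Capan-2 cell growth inhibition, read out with a viability assay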
Description: SANGER: Inhibition of human Capan-2 cell growth in a cell viability assay.

D-423MG = type: functional, cell-based, Homo sapiens; conditions: Homo sapiens, D-423MG
Description: SANGER: Inhibition of human D-423MG cell growth in a cell viability assay.

Detroit 562 = type: functional, cell-based, Homo sapiens; conditions: Homo sapiens, Detroit 562;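 also: growth inhibition of human Detroit 562 cells, read out by a cell viability assay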
Description: SANGER: Inhibition of human Detroit562 cell growth in a cell viability assay.

GP5d = type: functional, cell-based, Homo sapiens; conditions: Homo sapiens, GP5d;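 also: growth inhibition of human GP5d cells, read out with a cell viability assay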
Description: SANGER: Inhibition of human GP5d cell growth in a cell viability assay.

HCC1806 = type: functional, cell-based, Homo sapiens; conditions: Homo sapiens, HCC1806;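 also: growth inhibition of the cancer cell line, determined with a cell viability assay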
Description: SANGER: Inhibition of human HCC1806 cell growth in a cell viability assay.

HCC38 = type: functional, cell-based, Homo sapiens; conditions: Homo sapiens, HCC38;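 also: cell viability assay on the human HCC38 cell line, with IC50 marking the concentration that inhibits cell growth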
Description: SANGER: Inhibition of human HCC38 cell growth in a cell viability assay.

HCT-15 = type: functional, cell-based, Homo sapiens; conditions: Homo sapiens, HCT-15;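 also: cell viability readout, IC50 reflecting suppression of HCT-15 cell growth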
Description: SANGER: Inhibition of human HCT-15 cell growth in a cell viability assay.

HT-1376 = type: functional, cell-based, Homo sapiens; conditions: Homo sapiens, HT-1376
Description: SANGER: Inhibition of human HT-1376 cell growth in a cell viability assay.

HuO9 = type: functional, cell-based, Homo sapiens; conditions: Homo sapiens, HuO9;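 also: growth inhibition of HuO9 cells, read out with a cell viability assay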
Description: SANGER: Inhibition of human HuO9 cell growth in a cell viability assay.

KOSC-2 = type: functional, cell-based, Homo sapiens; conditions: Homo sapiens, KOSC-2;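 also: growth inhibition of KOSC-2 cells, read out by a cell viability assay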
Description: SANGER: Inhibition of human KOSC-2 cell growth in a cell viability assay.

KP-N-YN = type: functional, cell-based, Homo sapiens; conditions: Homo sapiens, KP-N-YN;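 also: growth inhibition of KP-N-YN cells, read out with a cell viability assay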
Description: SANGER: Inhibition of human KP-N-YN cell growth in a cell viability assay.

KYSE-150 cell line = type: functional, cell-based, Homo sapiens; conditions: Homo sapiens, KYSE-150;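 also: growth inhibition of human KYSE-150 cells, read out with a cell viability assay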
Description: SANGER: Inhibition of human KYSE-150 cell growth in a cell viability assay.

M059J = type: functional, cell-based, Homo sapiens; conditions: Homo sapiens, M059J;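 also: growth inhibition of M059J cells, read out with a cell viability assay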
Description: SANGER: Inhibition of human M059J cell growth in a cell viability assay.

ME-180 = type: functional, cell-based, Homo sapiens; conditions: Homo sapiens, ME-180;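 also: cell viability assay measuring growth inhibition of ME-180 cells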
Description: SANGER: Inhibition of human ME-180 cell growth in a cell viability assay.

MHH-ES-1 = type: functional, cell-based, Homo sapiens; conditions: Homo sapiens, MHH-ES-1;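 also: cell growth inhibition measured by a cell viability assay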
Description: SANGER: Inhibition of human MHH-ES-1 cell growth in a cell viability assay.

MIA PaCa-2 = type: functional, cell-based, Homo sapiens; conditions: Homo sapiens, MIA PaCa-2;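 also: growth inhibition of MIA PaCa-2 cells, read out with a cell viability assay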
Description: SANGER: Inhibition of human MIA-PaCa-2 cell growth in a cell viability assay.

NCI-H1048 = type: functional, cell-based, Homo sapiens; conditions: Homo sapiens, NCI-H1048;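 also: growth inhibition of human NCI-H1048 cells, read out with a cell viability assay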
Description: SANGER: Inhibition of human NCI-H1048 cell growth in a cell viability assay.

NCI-H1792 = type: functional, cell-based, Homo sapiens; conditions: Homo sapiens, NCI-H1792;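 also: growth inhibition of human NCI-H1792 cells, read out as cell viability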
Description: SANGER: Inhibition of human NCI-H1792 cell growth in a cell viability assay.

NCI-H1993 = type: functional, cell-based, Homo sapiens; conditions: Homo sapiens, NCI-H1993;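 also: growth inhibition of the cancer cell line, assessed with a cell viability assay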
Description: SANGER: Inhibition of human NCI-H1993 cell growth in a cell viability assay.

NCI-H358 = type: functional, cell-based, Homo sapiens; conditions: Homo sapiens, NCI-H358;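 also: growth inhibition of NCI-H358 human cells, read out with a cell viability assay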
Description: SANGER: Inhibition of human NCI-H358 cell growth in a cell viability assay.

OAW-28 = type: functional, cell-based, Homo sapiens; conditions: Homo sapiens, OAW-28;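 also: growth inhibition of OAW-28 cells, read out with a cell viability assay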
Description: SANGER: Inhibition of human OAW-28 cell growth in a cell viability assay.

RMG-I = type: functional, cell-based, Homo sapiens; conditions: Homo sapiens, RMG-I;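 also: growth inhibition of human RMG-I cells, read out with a cell viability assay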
Description: SANGER: Inhibition of human RMG-I cell growth in a cell viability assay.

RPMI-2650 = type: functional, cell-based, Homo sapiens; conditions: Homo sapiens, RPMI-2650
Description: SANGER: Inhibition of human RPMI-2650 cell growth in a cell viability assay.

SJRH30 = type: functional, cell-based, Homo sapiens; conditions: Homo sapiens, SJRH30;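 also: growth inhibition of human SJRH30 cells, read out with a cell viability assay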
Description: SANGER: Inhibition of human SJRH30 cell growth in a cell viability assay.

SK-HEP1 = type: functional, cell-based, Homo sapiens, SK-HEP-1; conditions: Homo sapiens, SK-HEP1;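 also: cell viability readout used to quantify reduction in proliferation of human SK-HEP-1 cells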
Description: SANGER: Inhibition of human SK-HEP-1 cell growth in a cell viability assay.

SK-OV-3 = type: functional, cell-based, Homo sapiens; conditions: Homo sapiens, SK-OV-3;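 also: growth inhibition of SK-OV-3 human cells, read out with a cell viability assay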
Description: SANGER: Inhibition of human SK-OV-3 cell growth in a cell viability assay.

A 172 = type: functional, cell-based, Homo sapiens; conditions: Homo sapiens, A 172;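 also: growth inhibition of A172 cells, measured with a cell viability readout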
Description: SANGER: Inhibition of human A172 cell growth in a cell viability assay.

ABC-1 = type: functional, cell-based, Homo sapiens; conditions: Homo sapiens, ABC-1;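 also: growth inhibition of human ABC-1 cells, read out by a cell viability assay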
Description: SANGER: Inhibition of human ABC-1 cell growth in a cell viability assay.

BFTC-905 = type: functional, cell-based, Homo sapiens; conditions: Homo sapiens, BFTC-905
Description: SANGER: Inhibition of human BFTC-905 cell growth in a cell viability assay.

CAKI-1 = type: functional, cell-based, Homo sapiens; conditions: Homo sapiens, CAKI-1;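 also: growth inhibition of CAKI-1 cells, measured by a cell viability assay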
Description: SANGER: Inhibition of human CAKI-1 cell growth in a cell viability assay.

CAL-12T = type: functional, cell-based, Homo sapiens; conditions: Homo sapiens, CAL-12T;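 also: growth inhibition of human CAL-12T cells, read out with a cell viability assay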
Description: SANGER: Inhibition of human CAL-12T cell growth in a cell viability assay.

CAL-51 = type: functional, cell-based, Homo sapiens; conditions: Homo sapiens, CAL-51;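 also: human CAL-51 cell line, growth inhibition read out via a cell viability assay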
Description: SANGER: Inhibition of human CAL-51 cell growth in a cell viability assay.

CAL-85-1 = type: functional, cell-based, Homo sapiens; conditions: Homo sapiens, CAL-85-1;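 also: growth inhibition of human CAL-85-1 cells, read out with a cell viability assay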
Description: SANGER: Inhibition of human CAL-85-1 cell growth in a cell viability assay.

U-251 = type: functional, cell-based, Homo sapiens; conditions: Homo sapiens, U-251;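 also: growth inhibition of human U-251 cells, read out through a cell viability assay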
Description: SANGER: Inhibition of human U251 cell growth in a cell viability assay.

UACC-893 = type: functional, cell-based, Homo sapiens; conditions: Homo sapiens, UACC-893
Description: SANGER: Inhibition of human UACC-893 cell growth in a cell viability assay.

CHP-212 = type: functional, cell-based, Homo sapiens; conditions: Homo sapiens, CHP-212
Description: SANGER: Inhibition of human CHP-212 cell growth in a cell viability assay.

Measured: IC50

Cc1cn(-c2cc(NC(=O)c3ccc(C)c(Nc4nccc(-c5cccnc5)n4)c3)cc(C(F)(F)F)c2)cn1 [NILOTINIB]
> 2 µM: Capan-2 | D-423MG | Detroit 562 | GP5d | HCC1806 | HCC38 | HCT-15 | HT-1376 | HuO9 | KOSC-2 | KP-N-YN | KYSE-150 cell line | M059J | ME-180 | MHH-ES-1 | MIA PaCa-2 | NCI-H1048 | NCI-H1792 | NCI-H1993 | NCI-H358 | OAW-28 | RMG-I | RPMI-2650 | SJRH30 | SK-HEP1 | SK-OV-3 | A 172 | ABC-1 | BFTC-905 | CAKI-1 | CAL-12T | CAL-51 | CAL-85-1 | U-251 | UACC-893 | CHP-212
